# Assay results as given in patent US20090176772A1, “METHOD OF REVERSING LEFT VENTRICULAR REMODELING” (priority 2004, published 2009).
# How the values were obtained:
# [1] = system: dogs with chronic heart failure produced by multiple sequential intracoronary microembolizations; assay: Ventriculographic measurements (LV volumes, ejection fraction) in dogs with chronic heart failure; type: in vivo, dog
# From the text: (§1) The following example examines the effects of ranolazine alone and in combination with an angiotensin converting enzyme (ACE) inhibitor and in combination with a beta-blocker on the progression of left ventricular (LV) dysfunction and LV chamber remodeling in dogs with chronic heart failure produced by multiple sequential intracoronary microembolizations.
# (§2) Chronic LV dysfunction and failure in dogs was produced by multiple sequential intracoronary embolizations with polystyrene Latex microspheres (77-109 μm in diameter) as previously described by Sabbah et al. (1991) Am. J. Physiol. 260:H1379-H1384. Coronary microembolizations were performed during cardiac catheterization under general anesthesia and sterile conditions. Anesthesia was induced using a combination of intravenous injections of hydromorphone (0.22 mg/kg), diazepam (0.2-0.6 mg/kg) and sodium pentobarbital 50-100 mg to effect. Plane of anesthesia was maintained throughout the study using 1% to 2% isoflurane. Left and right heart catheterization was performed via a femoral arteriotomy and venotomy. After each catheterization, the vessels were repaired using 6-0 silk and the skin closed with 4-0 suture. Microembolizations were discontinued when LV ejection fraction, determined angiographically, was between 30% and 40%. A period of 2 weeks was allowed after the last embolization to ensure that infarctions produced by the last microembolizations have completely healed and heart failure was established. The study protocol was then performed.
# (§3) Healthy, conditioned, purpose-bred mongrel dogs weighing between 19 and 25 kg.
# (§4) A randomized, blinded, placebo controlled study design was used. A total of 28 dogs underwent multiple sequential intracoronary microembolizations as described above to produce chronic heart failure. Two weeks after the last embolization, dogs were randomized into 4 study groups (treatment arms). Dogs were randomized to 3 months oral therapy with ranolazine alone (375 mg, bid, n=7), ranolazine (375 mg bid) in combination with metoprolol tartrate (25 mg bid, n=7), ranolazine (375 mg bid) in combination with enalapril (10 mg bid, n=7), or placebo (ranolazine vehicle bid, n=7). Hemodynamic, angiographic, echocardiographic, Doppler and neurohumoral measurements were made prior to randomization (2 weeks after the last embolization) and after completion of therapy (3 months after initiating therapy). After completing the final hemodynamic and angiographic study, dogs were euthanized and the hearts removed and tissue prepared and saved for future histological and biochemical evaluations. The study primary and secondary end-points were as follows:
# Left ventriculograms were performed during cardiac catheterization after completion of the hemodynamic measurements. Ventriculograms were performed with the dog placed on its right side and were recorded on 35 mm cine at 30 frames per second during a power injection of 20 ml of contrast material (RENO-M-60, Squibb Diagnostics). Correction for image magnification was made using a radiopaque grid placed at the level of the LV. LV end-systolic and end-diastolic volumes were calculated from angiographic silhouettes using the area length method (4). Premature beats and postextrasystolic beats were excluded from any analysis. LV ejection fraction was calculated as the ratio of the difference of end-diastolic and end-systolic volumes to end-diastolic volume times 100. Stroke volume was calculated as the difference between LV end-diastolic and end-systolic volumes. Cardiac output was calculated as the stroke volume times heart rate and cardiac index as the cardiac output divided by body surface area.
# To ensure that all study measures were similar at baseline, comparisons were made between all 4 study groups before any embolizations and at the time of randomization before initiation of therapy. For these comparisons, a one way analysis of variance (ANOVA) was used with a set at 0.05. […]
# [2] = system: dogs with chronic heart failure produced by multiple sequential intracoronary microembolizations; assay: Histomorphometric evaluations of LV tissue of dogs with chronic heart failure; type: in vivo, dog
# From the text: as §1, §2, §3, §4
# On the day of sacrifice, after completion of all hemodynamic and angiographic studies, the dog's chest was opened through a left thoracotomy, the pericardium was opened and the heart rapidly removed and placed in ice-cold, Tris buffer (pH 7.4). Three 2 mm thick transverse slices were obtained from the LV; one slice from the basal third, one from the middle third and one from the apical third and placed in 10% formalin. Transmural blocks were also obtained and rapidly frozen in isopentane cooled to −160° C. by liquid nitrogen and stored at −70° C. until needed. LV tissue samples were also obtained and stored in gluteraldehyde for future scanning and transmission electron microscopic studies.
# From each heart, 3 transverse slices one from the basal third, middle third and apical third of the LV, each […], were obtained. For comparison, tissue samples from 7 normal dogs were obtained and prepared in an identical manner. From each transverse slice, transmural tissue blocks were obtained and embedded in paraffin blocks. From each block, 6 μm thick sections were prepared and stained with Gomori trichrome to identify fibrous tissue. […]
# [3] = POST: after 3 months of oral therapy bid, mean±SEM
# [4] = PRE: at time of randomization, before therapy, mean±SEM
# [5] = at the end of 3 months of treatment
# [6] = change from pre-treatment to post-treatment (3 months), mean±SEM
smiles,measurement,setting,value
"COc1ccccc1OCC(O)CN1CCN(CC(=O)Nc2c(C)cccc2C)CC1 (racemic) [RAN Alone, (±)-N-(2,6-dimethylphenyl)-4-[2-hydroxy-3-(2-methoxyphenoxy)-propyl]-1-piperazineacetamide]",CI = cardiac index,[1]; [3],2.3 ± 0.2 L/min/m^2
same,CO = cardiac output,[1]; [3],1.91 ± .18 L/min
same,EDV = LV end-diastolic volume,[1]; [3],65 ± 2 mL
same,EF = LV ejection fraction,[1]; [3],37 ± 2 %
same,ESV = LV end-systolic volume,[1]; [3],41 ± 2 mL
same,SV = stroke volume,[1]; [3],24 ± 1 mL
same,CI = cardiac index,[1]; [4],2.0 ± 0.2 L/min/m^2
same,CO = cardiac output,[1]; [4],1.67 ± .11 L/min
same,EDV = LV end-diastolic volume,[1]; [4],63 ± 3 mL
same,EF = LV ejection fraction,[1]; [4],35 ± 1%
same,ESV = LV end-systolic volume,[1]; [4],41 ± 2 mL
same,SV = stroke volume,[1]; [4],22 ± 1 mL
same,"LV ejection fraction, intra-group comparison pre- vs post-treatment",[1]; [5],increased significantly
same,"LV end-diastolic volume, intra-group comparison pre- vs post-treatment",[1]; [5],remained unchanged
same,"LV end-systolic volume, intra-group comparison pre- vs post-treatment",[1]; [5],remained unchanged
same,Δ CI (cardiac index),[1]; [6],0.3 ± 0.1 L/min/m^2
same,Δ CO (cardiac output),[1]; [6],0.24 ± .10 L/min
same,Δ EDV (LV end-diastolic volume),[1]; [6],2 ± 1 mL
same,Δ EF (LV ejection fraction),[1]; [6],2 ± 1 %
same,Δ ESV (LV end-systolic volume),[1]; [6],0 ± 1 mL
same,Δ SV (stroke volume),[1]; [6],2 ± 1 mL
same,Ability to reduce LV end-diastolic volume (FIG. 1),[1]; data of Example 1,"neither ranolazine, enalapril, nor metoprolol were independently able to reduce LV end-diastolic volume"
same,Ability to reduce LV end-systolic volume (FIG. 2),[1]; data of Example 1,"neither ranolazine, enalapril, nor metoprolol appear to independently reduce LV end-systolic volume"
same,VFRF = volume fraction of replacement fibrosis,"[2]; LV tissue after 3 months of therapy, mean±SEM, normal dogs 0 ± 0, placebo 14.6 ± 1.2",10.5 ± 2.1 %
same,VFIF = volume fraction of interstitial fibrosis,"[2]; LV tissue after 3 months of therapy, mean±SEM, normal dogs 3.7 ± 0.1, placebo 13.0 ± 0.7",11.0 ± 0.4 %
same,ODD = oxygen diffusion distance,"[2]; LV tissue after 3 months of therapy, mean±SEM, normal dogs 8.9 ± 0.2, placebo 11.5 ± 0.3",10.9 ± 0.2 μm
same,MCSA = myocyte cross-sectional area,"[2]; LV tissue after 3 months of therapy, mean±SEM, normal dogs 409 ± 10, placebo 772 ± 21",685 ± 23 μm2
same,CD = capillary density,"[2]; LV tissue after 3 months of therapy, mean±SEM, normal dogs 2607 ± 80, placebo 1706 ± 28",1832 ± 43 capillaries/mm2
same,"Histomorphometric measures (myocyte cross-sectional area, replacement and interstitial fibrosis, oxygen diffusion distance, capillary density) compared to placebo",[2]; after 3 months of therapy,significantly improved
